From patent publication US9381200B2, “Nitrogen containing compounds” (WOCKHARDT LIMITED, priority 2011, dated 2016)
In brackets after ≈: the same amount, converted by molar mass. Where two headings read alike, the source gives them in different places.

How the values were obtained:
Assay type in all cases: cell-based
E. coli 7 MP = test: Antibacterial activity (MIC), agar dilution per CLSI; settings: Escherichia coli, Table 3, E. coli 7 MP expressing ESBL, read-out: MIC
Experimental: (§1) The biological activity of representative compounds according to the invention against various bacterial strains was investigated. In a typical study, overnight grown bacterial cultures were diluted appropriately and inoculated on the agar media containing doubling dilutions of the test compounds. Observation for growth or no growth was performed after 16-20 hours of incubation at 35±2° C. in ambient air. The overall procedure was performed as per Clinical and Laboratory Standards Institute (CLSI) recommendations (Clinical and Laboratory Standards Institute (CLSI), Performance Standards for Antimicrobial Susceptibility Testing, 20th Informational Supplement, M 100-S20, Volume 30, No. 1, 2010).
(§2) Table 3 details antibacterial activity of representative compounds according to the invention against various E. coli strains (NCTC 13351, M 50 and 7 MP) expressing ESBL (Extended Spectrum Beta Lactamases).

E. coli NCTC 13351 = test: as above; settings: Escherichia coli, NCTC13351, Table 3, E. coli NCTC 13351 expressing ESBL, 16-20 hours, 35±2° C., read-out: MIC
Experimental: as §1, §2

E. coli M 50 = test: as above; settings: Escherichia coli
Experimental: as §1
(§3) The activities are expressed as MICs (mcg/ml).

E. Coli H 484 = test: Antibacterial activity (MIC) against MDR Gram negative strains; settings: Escherichia coli
Experimental: as §1, §3

P. aeruginosa Ps 32 = test: as above; settings: Pseudomonas aeruginosa, PS32
Experimental: as §1, §3

E. Coli M 44 = test: as above; settings: Escherichia coli
Experimental: as §1, §3

K penumoniae H 525 = test: as above
Experimental: as §1, §3

K penumoniae H 523 = test: as above
Experimental: as §1, §3

K penumoniae H 521 = test: as above
Experimental: as §1, §3

K. penumoniae S 48 = test: as above
Experimental: as §1, §3

E. Coli M 3 = test: as above; settings: Escherichia coli
Experimental: as §1, §3

P. aeruginosa ATCC 27853 = test: as above; settings: Pseudomonas aeruginosa, ATCC27853
Experimental: as §1, §3

E. Coli W 13352 = test: as above; settings: Escherichia coli
Experimental: as §1, §3

E. Coli W 13351 = test: as above; settings: Escherichia coli
Experimental: as §1, §3

E. Coli B 89 = test: as above; settings: Escherichia coli
Experimental: as §1, §3

E. Coli W 13353 = test: as above; settings: Escherichia coli
Experimental: as §1, §3

P. aeruginosa Ps 21 = test: as above; settings: Pseudomonas aeruginosa, PS21
Experimental: as §1, §3

[1] = M50, Table 3, E. coli M 50 expressing ESBL, agar dilution, read-out: MIC
[2] = M50, Table 4, E. Coli M 50, Class C ESBL, MDR, read-out: MIC
[3] = Table 4, E. Coli H 484, Class C ESBL, MDR, read-out: MIC
[4] = Table 5, P. aeruginosa Ps 32, read-out: MIC
[5] = Table 5, E. Coli M 44, Class B ESBL, MDR, read-out: MIC
[6] = Table 4, K penumoniae H 525, KPC ESBL, MDR, read-out: MIC
[7] = Table 4, K penumoniae H 523, KPC ESBL, MDR, read-out: MIC
[8] = Table 4, K penumoniae H 521, KPC ESBL, MDR, read-out: MIC
[9] = Table 5, K. penumoniae S 48, Class B ESBL, MDR, read-out: MIC
[10] = Table 5, E. Coli M 3, Class B ESBL, MDR, read-out: MIC
[11] = Table 5, P. aeruginosa ATCC 27853, read-out: MIC
[12] = Table 4, E. Coli W 13352, Class A ESBL, MDR, read-out: MIC
[13] = Table 4, E. Coli W 13351, Class A ESBL, MDR, read-out: MIC
[14] = Table 4, E. Coli B 89, Class C ESBL, MDR, read-out: MIC
[15] = Table 4, E. Coli W 13353, Class A ESBL, MDR, read-out: MIC
[16] = Table 5, P. aeruginosa Ps 21, read-out: MIC

| Compound | MIC (E. coli 7 MP) [µg/mL] | MIC (E. coli NCTC 13351) [µg/mL] | MIC (E. coli M 50; [1]) [µg/mL] | MIC (E. coli M 50; [2]) [µg/mL] | MIC (E. Coli H 484; [3]) [µg/mL] | MIC (P. aeruginosa Ps 32; [4]) [µg/mL] | MIC (E. Coli M 44; [5]) [µg/mL] | MIC (K penumoniae H 525; [6]) [µg/mL] | MIC (K penumoniae H 523; [7]) [µg/mL] | MIC (K penumoniae H 521; [8]) [µg/mL] | MIC (K. penumoniae S 48; [9]) [µg/mL] | MIC (E. Coli M 3; [10]) [µg/mL] | MIC (P. aeruginosa ATCC 27853; [11]) [µg/mL] | MIC (E. Coli W 13352; [12]) [µg/mL] | MIC (E. Coli W 13351; [13]) [µg/mL] | MIC (E. Coli B 89; [14]) [µg/mL] | MIC (E. Coli W 13353; [15]) [µg/mL] | MIC (P. aeruginosa Ps 21; [16]) [µg/mL] | also measured |
| --- | --- | --- | --- | --- | --- | --- | --- | --- | --- | --- | --- | --- | --- | --- | --- | --- | --- | --- | --- |
| O=C(NNC(=O)[C@@H]1CC[C@@H]2CN1C(=O)N2OC(F)(F)C(=O)O)[C@@H]1CCCNC1 [Example 5, trans-difluoro-{7-oxo-2-[N′—((R)-piperidin-3-carbonyl)-hydrazinocarbonyl]-1,6-diaza-bicyclo[3.2.1]-oct-6-yloxy}-acetic acid] | 0.5 (≈ 1.23 µM) | 0.25 (≈ 0.617 µM) | 0.25 (≈ 0.617 µM) | 1 (≈ 2.47 µM) | 1 (≈ 2.47 µM) | > 32 | 0.5 (≈ 1.23 µM) | 2 (≈ 4.93 µM) | 1 (≈ 2.47 µM) | 1 (≈ 2.47 µM) | 2 (≈ 4.93 µM) | 1 (≈ 2.47 µM) | > 32 | 0.5 (≈ 1.23 µM) | 0.25 (≈ 0.617 µM) | 0.5 (≈ 1.23 µM) | 0.5 (≈ 1.23 µM) | > 32 |  |
| O=C(NNC(=O)[C@H]1CC[C@@H]2CN1C(=O)N2OS(=O)(=O)O)[C@@H]1C[C@H](F)CN1 (mixture of isomers) [Example 11, trans-sulfuric acid mono-[2-(N′-[(2S,4S)-4-fluoro-pyrrolidin-2-carbonyl]-hydrazinocarbonyl)-7-oxo-1,6-diaza-bicyclo[3.2.1]oct-6-yl]ester] | 4 | 2 | 1 | 2 | 16 | > 32 | 1 | 2 | 2 | 4 | 2 | 8 | > 32 | 2 | 2 | 2 | 2 | > 32 |  |
| O=C(NNC(=O)[C@H]1CCCN1)[C@H]1CC[C@@H]2CN1C(=O)N2OS(=O)(=O)O (mixture of isomers) [Example 30, trans-sulfuric acid mono-[2-(N′—[(R)-pyrrolidin-2-carbonyl]-hydrazinocarbonyl)-7-oxo-1,6-diaza-bicyclo[3.2.1]oct-6-yl]ester] | 32 | 16 | 8 | 8 | 8 | > 32 | 16 | > 32 | 8 | 8 | > 32 | 8 | > 32 | 16 | 16 | 8 | 8 | > 32 |  |
| NCCCC(=O)NNC(=O)[C@H]1CC[C@@H]2CN1C(=O)N2OS(=O)(=O)O (relative stereo) [Example 9, trans-sulfuric acid mono-[2-(N′-(4-amino-butanoyl)-hydrazinocarbonyl)-7-oxo-1,6-diaza-bicyclo[3.2.1]oct-6-yl]ester] | 4 (≈ 10.9 µM) | 1 (≈ 2.74 µM) | 2 (≈ 5.47 µM) | 1 (≈ 2.74 µM) | 2 (≈ 5.47 µM) | 16 (≈ 43.8 µM) | 0.5 (≈ 1.37 µM) | 0.5 (≈ 1.37 µM) | 0.5 (≈ 1.37 µM) | 1 (≈ 2.74 µM) | 1 (≈ 2.74 µM) | 2 (≈ 5.47 µM) | 8 (≈ 21.9 µM) | 1 (≈ 2.74 µM) | 1 (≈ 2.74 µM) | 1 (≈ 2.74 µM) | 1 (≈ 2.74 µM) | 8 (≈ 21.9 µM) |  |
| C[C@@H](O)[C@H]1C(=O)N2C(C(=O)O)=C(SCCN=CN)C[C@H]12 [Imipenem, reference compound] |  |  |  | 0.5 (≈ 1.67 µM) | 4 (≈ 13.4 µM) | > 32 | 32 (≈ 107 µM) | 16 (≈ 53.4 µM) | 16 (≈ 53.4 µM) | 16 (≈ 53.4 µM) | 16 (≈ 53.4 µM) | 8 (≈ 26.7 µM) | 4 (≈ 13.4 µM) | 0.25 (≈ 0.835 µM) | 0.25 (≈ 0.835 µM) | 0.5 (≈ 1.67 µM) | 0.25 (≈ 0.835 µM) | > 32 |  |
| O=C(O)c1cn(C2CC2)c2cc(N3CCNCC3)c(F)cc2c1=O [Ciprofloxacin, reference compound] |  |  |  |  |  |  |  | 32 (≈ 96.6 µM) | 8 (≈ 24.1 µM) | 32 (≈ 96.6 µM) |  |  | 0.5 (≈ 1.51 µM) |  |  |  |  |  |  |
| CN(C)c1cc(NC(=O)CNC(C)(C)C)c(O)c2c1C[C@H]1C[C@H]3[C@H](N(C)C)C(O)=C(C(N)=O)C(=O)[C@@]3(O)C(O)=C1C2=O [Tigecyclin, Tigecycline, reference compound] |  |  |  |  |  |  |  |  |  |  |  |  |  |  |  |  |  |  | MIC (E. coli M 50; M50): 0.5 µg/mL (≈ 0.854 µM); MIC (E. Coli H 484): 0.25 µg/mL (≈ 0.427 µM); MIC (P. aeruginosa Ps 32): 16 µg/mL (≈ 27.3 µM); MIC (E. Coli M 44): 0.25 µg/mL (≈ 0.427 µM); MIC (K penumoniae H 525): 2 µg/mL (≈ 3.41 µM); MIC (K penumoniae H 523): 8 µg/mL (≈ 13.7 µM); MIC (K penumoniae H 521): 2 µg/mL (≈ 3.41 µM); MIC (K. penumoniae S 48): 1 µg/mL (≈ 1.71 µM); MIC (E. Coli M 3): 4 µg/mL (≈ 6.83 µM); MIC (P. aeruginosa ATCC 27853): 16 µg/mL (≈ 27.3 µM); MIC (E. Coli W 13352): 0.25 µg/mL (≈ 0.427 µM); MIC (E. Coli W 13351): 1 µg/mL (≈ 1.71 µM); MIC (E. Coli B 89): 0.5 µg/mL (≈ 0.854 µM); MIC (E. Coli W 13353): 1 µg/mL (≈ 1.71 µM); MIC (P. aeruginosa Ps 21): 16 µg/mL (≈ 27.3 µM) |
| C[C@H]1[C@H](NC(=O)/C(=N\OC(C)(C)C(=O)O)c2csc(N)n2)C(=O)N1S(=O)(=O)O [Aztreonam, reference compound] |  |  |  | > 32 | > 32 | 8 (≈ 18.4 µM) | > 32 | > 32 | > 32 | > 32 | > 32 | > 32 | 2 (≈ 4.59 µM) | > 32 | > 32 | > 32 | > 32 | 8 (≈ 18.4 µM) |  |
